Source: article PMC10584170, “Machine learning-based phenotypic imaging to characterise the targetable biology of Plasmodium falciparum male gametocytes for the development of transmission-blocking antimalarials” (PLOS Pathogens, 2023)

Assays:
[1] = tested on: P. falciparum female gametocytes; experiment: P. falciparum Dual Gamete Formation Assay (PfDGFA), female readout (Pfs25-positive female gametes); format: cell-based, Plasmodium falciparum NF54; conditions: for Average inhibition female (%): average of replicates; for % inhibition female (individual replicates) R1: replicate R1; for % inhibition female (individual replicates) R3: replicate R3; for % inhibition female (individual replicates) R4: replicate R4
How it was run: (§1)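 Day-14 NF54 gametocytes were incubated with compound for 24 h at 37°C under 1% O2/3% CO2/96% N2. Gametogenesis was triggered with ookinete medium (0.1 μM xanthurenic acid) plus Cy3-anti-Pfs25, and exflagellation was imaged by brightfield after cooling to 4°C then 28°C. Females were imaged by Pfs25 fluorescence 24 h later at 28°C.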

[2] = tested on: P. falciparum male gametocytes; experiment: P. falciparum Dual Gamete Formation Assay (PfDGFA), male readout (exflagellation); format: cell-based, Plasmodium falciparum NF54; conditions: for Average inhibition male (%): average of replicates; for % inhibition male (individual replicates) R1: replicate R1; for % inhibition male (individual replicates) R3: replicate R3; for % inhibition male (individual replicates) R4: replicate R4; for Activity: hit = >50% inhibition in male or female readout in at least 3 replicates, 0 = no class assigned
How it was run: as §1

[3] = 2µM, 24h preincubation with gametocytes prior to induction of gametogenesis
[4] = 2µM, 24h preincubation, number of replicates with >50% inhibition in the female readout
[5] = 2µM, 24h preincubation, number of replicates with >50% inhibition in the male readout
[6] = 2µM, 24h preincubation, hits selected on >50% inhibition in the female readout across replicates
[7] = 2µM, 24h preincubation, hits selected on >50% inhibition in the male readout across replicates
[8] = PfDGFA at 2µM, 24h preincubation
[9] = PfDGFA at 2µM, 24h preincubation with gametocytes
[10] = number of replicates with >50% inhibition in the female readout, 2µM
[11] = number of replicates with >50% inhibition in the male readout, 2µM
[12] = PfDGFA at 2µM, 24h preincubation with gametocytes prior to induction of gametogenesis
[13] = 2µM, 24h preincubation with gametocytes

Cl.c1ccc2c(Nc3ccc(Cc4ccc(Nc5c6ccccc6nc6ccccc56)cc4)cc3)c3ccccc3nc2c1 [TCMDC-137354]
Average inhibition female (%) [1, 3]: 87.8%
% inhibition female (individual replicates) R1 [1, 3]: 83.3%
% inhibition female (individual replicates) R3 [1, 3]: 91.0%
% inhibition female (individual replicates) R4 [1, 3]: 96.5%
HitlevelF [1, 4]: 4
Average inhibition male (%) [2, 3]: 52.9%
% inhibition male (individual replicates) R1 [2, 3]: 49.4%
% inhibition male (individual replicates) R3 [2, 3]: 55.5%
% inhibition male (individual replicates) R4 [2, 3]: 71.3%
HitlevelM [2, 5]: 2

Cl.c1ccc2c(Nc3ccc(OCCOCCOc4ccc(Nc5c6ccccc6nc6ccccc56)cc4)cc3)c3ccccc3nc2c1 [TCMDC-137355]
Average inhibition female (%) [1, 3]: 29.1%
% inhibition female (individual replicates) R1 [1, 3]: 27.7%
% inhibition female (individual replicates) R3 [1, 3]: 5.6%
% inhibition female (individual replicates) R4 [1, 3]: 8.9%
HitlevelF [1, 4]: 1
Average inhibition male (%) [2, 3]: 37.2%
% inhibition male (individual replicates) R1 [2, 3]: 36.9%
% inhibition male (individual replicates) R3 [2, 3]: -1.4%
% inhibition male (individual replicates) R4 [2, 3]: 40.2%
HitlevelM [2, 5]: 1

COc1cc(Cc2cnc(N)nc2N)cc(OCCCC(=O)O)c1OC [TCMDC-137359]
Average inhibition female (%) [1, 3]: 3.8%
% inhibition female (individual replicates) R1 [1, 3]: 8.3%
% inhibition female (individual replicates) R3 [1, 3]: -22.8%
% inhibition female (individual replicates) R4 [1, 3]: 31.0%
HitlevelF [1, 6]: 0
Average inhibition male (%) [2, 3]: 4.4%
% inhibition male (individual replicates) R1 [2, 3]: 4.7%
% inhibition male (individual replicates) R3 [2, 3]: 7.0%
% inhibition male (individual replicates) R4 [2, 3]: 5.5%
HitlevelM [2, 7]: 0
Activity [2, 8]: 0

CCc1nc(N)nc(N)c1-c1cccc(Cl)c1 [TCMDC-137371]
Average inhibition female (%) [1, 3]: 4.1%
% inhibition female (individual replicates) R1 [1, 3]: 14.2%
% inhibition female (individual replicates) R3 [1, 3]: -6.6%
% inhibition female (individual replicates) R4 [1, 3]: 5.2%
HitlevelF [1, 6]: 0
Average inhibition male (%) [2, 3]: -6.5%
% inhibition male (individual replicates) R1 [2, 3]: 19.6%
% inhibition male (individual replicates) R3 [2, 3]: -24.6%
% inhibition male (individual replicates) R4 [2, 3]: -25.1%
HitlevelM [2, 7]: 0
Activity [2, 8]: 0

CCCc1cc(OC)c(CC2c3cc(O)c(Cl)cc3C(c3ccccc3)CN2C)cc1OC.Cl (stereo not drawn) [TCMDC-137432]
Average inhibition female (%) [1, 3]: 7.6%
% inhibition female (individual replicates) R1 [1, 3]: -2.1%
% inhibition female (individual replicates) R3 [1, 3]: 40.4%
% inhibition female (individual replicates) R4 [1, 3]: -8.9%
HitlevelF [1, 6]: 0
Average inhibition male (%) [2, 3]: 3.7%
% inhibition male (individual replicates) R1 [2, 3]: 2.4%
% inhibition male (individual replicates) R3 [2, 3]: -26.9%
% inhibition male (individual replicates) R4 [2, 3]: 27.9%
HitlevelM [2, 7]: 0
Activity [2, 8]: 0

Cl.N=C(NCCCc1ccccc1)c1cccc(C(=N)NCCCc2ccccc2)n1 [TCMDC-137453]
Average inhibition female (%) [1, 3]: 26.7%
% inhibition female (individual replicates) R1 [1, 3]: 21.1%
% inhibition female (individual replicates) R3 [1, 3]: 29.3%
% inhibition female (individual replicates) R4 [1, 3]: 27.4%
HitlevelF [1, 4]: 0
Average inhibition male (%) [2, 3]: 15.3%
% inhibition male (individual replicates) R1 [2, 3]: 11.4%
% inhibition male (individual replicates) R3 [2, 3]: -5.0%
% inhibition male (individual replicates) R4 [2, 3]: 33.6%
HitlevelM [2, 5]: 0

CC(CNC(=N)c1cccc(C(=N)NCC(C)Oc2cccc(C3CCCCC3)c2)n1)Oc1cccc(C2CCCCC2)c1.Cl (stereo not drawn) [TCMDC-137455]
Average inhibition female (%) [1, 9]: 40.6%
% inhibition female (individual replicates) R1 [1, 9]: 53.6%
% inhibition female (individual replicates) R3 [1, 9]: 30.8%
% inhibition female (individual replicates) R4 [1, 9]: 44.6%
HitlevelF [1, 10]: 1
Average inhibition male (%) [2, 9]: 81.3%
% inhibition male (individual replicates) R1 [2, 9]: 90.7%
% inhibition male (individual replicates) R3 [2, 9]: 87.0%
% inhibition male (individual replicates) R4 [2, 9]: 101.3%
HitlevelM [2, 11]: 3

N=C(NCC1CC1c1ccccc1)c1cccc(C(=N)NCC2CC2c2ccccc2)n1 (stereo not drawn) [TCMDC-137456]
Average inhibition female (%) [1, 9]: 33.5%
% inhibition female (individual replicates) R1 [1, 9]: 27.8%
% inhibition female (individual replicates) R3 [1, 9]: 24.0%
% inhibition female (individual replicates) R4 [1, 9]: 33.0%
HitlevelF [1, 10]: 0
Average inhibition male (%) [2, 9]: 66.3%
% inhibition male (individual replicates) R1 [2, 9]: 75.4%
% inhibition male (individual replicates) R3 [2, 9]: 23.0%
% inhibition male (individual replicates) R4 [2, 9]: 81.6%
HitlevelM [2, 11]: 3

CN1CCN(CCCCNc2c3ccccc3nc3ccccc23)CC1 [TCMDC-137479]
Average inhibition female (%) [1, 3]: 21.2%
% inhibition female (individual replicates) R1 [1, 3]: 27.6%
% inhibition female (individual replicates) R3 [1, 3]: -3.0%
% inhibition female (individual replicates) R4 [1, 3]: 19.8%
HitlevelF [1, 4]: 0
Average inhibition male (%) [2, 3]: 37.9%
% inhibition male (individual replicates) R1 [2, 3]: 56.6%
% inhibition male (individual replicates) R3 [2, 3]: -27.6%
% inhibition male (individual replicates) R4 [2, 3]: 45.6%
HitlevelM [2, 5]: 2

CCC(=C(CC)c1ccc(O)c(CNC2CCCCC2)c1)c1ccc(O)c(CNC2CCCCC2)c1.Cl [TCMDC-137481]
Average inhibition female (%) [1, 3]: 5.6%
% inhibition female (individual replicates) R1 [1, 3]: 2.3%
% inhibition female (individual replicates) R3 [1, 3]: 13.0%
% inhibition female (individual replicates) R4 [1, 3]: 6.2%
HitlevelF [1, 6]: 0
Average inhibition male (%) [2, 3]: 1.2%
% inhibition male (individual replicates) R1 [2, 3]: -0.3%
% inhibition male (individual replicates) R4 [2, 3]: 0.8%
HitlevelM [2, 7]: 0
Activity [2, 8]: 0

Nc1nc(Cc2ccc(Cl)cc2)nc(Cc2ccc(Cl)cc2)n1 [TCMDC-137497]
% inhibition female (individual replicates) R1 [1, 12]: -4.6%
% inhibition female (individual replicates) R3 [1, 12]: -30.4%
% inhibition female (individual replicates) R4 [1, 12]: 8.0%
Average inhibition female (%) [1, 8]: -6.5%
% inhibition male (individual replicates) R1 [2, 12]: -13.6%
% inhibition male (individual replicates) R3 [2, 12]: -49.6%
% inhibition male (individual replicates) R4 [2, 12]: -34.5%
Average inhibition male (%) [2, 8]: -26.4%

COc1ccc(O)cc1Cc1cnc2nc(N)nc(N)c2c1C [TCMDC-137498]
Average inhibition female (%) [1, 3]: 6.7%
% inhibition female (individual replicates) R1 [1, 3]: 14.0%
% inhibition female (individual replicates) R3 [1, 3]: 17.6%
% inhibition female (individual replicates) R4 [1, 3]: 8.3%
HitlevelF [1, 6]: 0
Average inhibition male (%) [2, 3]: -10.8%
% inhibition male (individual replicates) R1 [2, 3]: 7.6%
% inhibition male (individual replicates) R3 [2, 3]: -15.7%
% inhibition male (individual replicates) R4 [2, 3]: -40.5%
HitlevelM [2, 7]: 0
Activity [2, 8]: 0

Clc1ccc(CNCCCCCCNCc2ccc(Cl)cc2)cc1.O=C(O)c1ccc2ccccc2c1O [TCMDC-137500]
Average inhibition female (%) [1, 3]: 9.2%
% inhibition female (individual replicates) R1 [1, 3]: 13.6%
% inhibition female (individual replicates) R3 [1, 3]: -5.3%
% inhibition female (individual replicates) R4 [1, 3]: 22.1%
HitlevelF [1, 4]: 0
Average inhibition male (%) [2, 3]: 60.2%
% inhibition male (individual replicates) R1 [2, 3]: 69.1%
% inhibition male (individual replicates) R3 [2, 3]: 26.6%
% inhibition male (individual replicates) R4 [2, 3]: 76.2%
HitlevelM [2, 5]: 3

CCCN1CCN(CCNc2c3ccccc3nc3ccccc23)CC1 [TCMDC-137549]
Average inhibition female (%) [1, 13]: 13.4%
% inhibition female (individual replicates) R1 [1, 13]: 14.9%
% inhibition female (individual replicates) R3 [1, 13]: 20.2%
% inhibition female (individual replicates) R4 [1, 13]: 28.7%
Average inhibition male (%) [2, 13]: 95.7%
% inhibition male (individual replicates) R1 [2, 13]: 96.4%
% inhibition male (individual replicates) R3 [2, 13]: 92.4%
% inhibition male (individual replicates) R4 [2, 13]: 99.6%

Br.CCCCCCCNCCNc1cc(C)nc2ccccc12 [TCMDC-137556]
Average inhibition female (%) [1, 3]: 18.1%
% inhibition female (individual replicates) R1 [1, 3]: 25.7%
% inhibition female (individual replicates) R3 [1, 3]: 0.5%
% inhibition female (individual replicates) R4 [1, 3]: 18.7%
HitlevelF [1, 4]: 0
Average inhibition male (%) [2, 3]: 11.5%
% inhibition male (individual replicates) R1 [2, 3]: 12.4%
% inhibition male (individual replicates) R3 [2, 3]: 4.0%
% inhibition male (individual replicates) R4 [2, 3]: 8.2%
HitlevelM [2, 5]: 0

COc1cccc2c(O)c(CNC3CCCCC3)ccc12.Cl [TCMDC-137595]
% inhibition female (individual replicates) R1 [1, 12]: -8.7%
% inhibition female (individual replicates) R3 [1, 12]: -13.9%
% inhibition female (individual replicates) R4 [1, 12]: -3.5%
Average inhibition female (%) [1, 8]: -7.6%
% inhibition male (individual replicates) R1 [2, 12]: -3.5%
% inhibition male (individual replicates) R3 [2, 12]: 3.4%
% inhibition male (individual replicates) R4 [2, 12]: 4.2%
Average inhibition male (%) [2, 8]: 3.3%

COc1ccc(CNCCCCCCNCc2ccc(OC)c3ccccc23)c2ccccc12.Cl [TCMDC-137631]
Average inhibition female (%) [1, 9]: 47.3%
% inhibition female (individual replicates) R1 [1, 9]: 36.3%
% inhibition female (individual replicates) R3 [1, 9]: 33.7%
% inhibition female (individual replicates) R4 [1, 9]: 34.7%
HitlevelF [1, 10]: 1
Average inhibition male (%) [2, 9]: 83.3%
% inhibition male (individual replicates) R1 [2, 9]: 71.0%
% inhibition male (individual replicates) R3 [2, 9]: 73.6%
% inhibition male (individual replicates) R4 [2, 9]: 100.9%
HitlevelM [2, 11]: 4
